ChEMBL document CHEMBL3877248, “Further investigation of inhibitors of MRSA pyruvate kinase: Towards the conception of novel antimicrobial agents” (Eur J Med Chem, 2017)
Values after ≈ are worked out from the molar mass of the structure shown.

How the values were obtained:
[1] = system: Staphylococcus aureus; experiment: Antibacterial activity against Staphylococcus aureus ATCC 29213 measured after 24 hrs by two-fold microbroth dilution method; format: functional
[2] = target: T1, Pyruvate kinase (Staphylococcus aureus (strain MRSA252), UniProt Q6GG09); experiment: Inhibition of recombinant N-terminal His-tagged methicillin-resistant Staphylococcus aureus MRSA252 pyruvate kinase expressed in Escherichia coli BL21(DE3) using PEP as substrate measured after 5 mins by LDH-coupled assay; design: species or system Staphylococcus aureus subsp. aureus MRSA252
T1 sequence (Q6GG09 whole entry): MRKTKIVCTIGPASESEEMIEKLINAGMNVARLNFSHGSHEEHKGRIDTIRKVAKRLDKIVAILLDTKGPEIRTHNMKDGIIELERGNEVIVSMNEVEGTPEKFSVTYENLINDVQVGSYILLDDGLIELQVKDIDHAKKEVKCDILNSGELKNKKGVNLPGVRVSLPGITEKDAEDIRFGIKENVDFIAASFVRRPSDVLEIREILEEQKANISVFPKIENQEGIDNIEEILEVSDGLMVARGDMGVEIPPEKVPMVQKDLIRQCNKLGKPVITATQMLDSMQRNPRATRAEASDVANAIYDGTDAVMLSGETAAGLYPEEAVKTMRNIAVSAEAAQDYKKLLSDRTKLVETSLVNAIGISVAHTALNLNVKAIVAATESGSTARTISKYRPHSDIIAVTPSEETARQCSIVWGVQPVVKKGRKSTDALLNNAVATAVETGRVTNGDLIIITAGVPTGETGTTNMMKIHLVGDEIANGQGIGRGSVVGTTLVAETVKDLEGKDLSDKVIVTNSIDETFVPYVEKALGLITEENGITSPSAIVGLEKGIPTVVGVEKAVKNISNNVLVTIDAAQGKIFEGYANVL

[3] = target: T2, Pyruvate kinase (Staphylococcus aureus (strain MRSA252)) (UniProt Q6GG09); experiment: Inhibition of recombinant N-terminal His-tagged methicillin-resistant Staphylococcus aureus MRSA252 pyruvate kinase expressed in Escherichia coli BL21(DE3) at 1 uM using PEP as substrate measured after 5 mins by LDH-coupled assay relative to control; settings: Staphylococcus aureus subsp. aureus MRSA252
T2 sequence (whole entry): T1 sequence (Q6GG09 whole entry)

[4] = Selectivity ratio for inhibition of recombinant N-terminal His-tagged methicillin-resistant Staphylococcus aureus MRSA252 pyruvate kinase over inhibition of human recombinant N-terminal His-tagged pyruvate kinase M1
[5] = system: Staphylococcus aureus; experiment: Antibacterial activity against methicillin-resistant Staphylococcus aureus MRSA252 by two-fold microbroth dilution method; format: functional
[6] = Selectivity ratio for inhibition of recombinant N-terminal His-tagged methicillin-resistant Staphylococcus aureus MRSA252 pyruvate kinase over inhibition of human recombinant N-terminal His-tagged pyruvate kinase-R
[7] = Selectivity ratio for inhibition of recombinant N-terminal His-tagged methicillin-resistant Staphylococcus aureus MRSA252 pyruvate kinase over inhibition of human recombinant N-terminal His-tagged pyruvate kinase-L
[8] = Selectivity ratio for inhibition of recombinant N-terminal His-tagged methicillin-resistant Staphylococcus aureus MRSA252 pyruvate kinase over inhibition of human recombinant N-terminal His-tagged pyruvate kinase M2
[9] = target: T2, Pyruvate kinase (Staphylococcus aureus (strain MRSA252)); experiment: Inhibition of recombinant N-terminal His-tagged methicillin-resistant Staphylococcus aureus MRSA252 pyruvate kinase expressed in Escherichia coli BL21(DE3) at 0.1 uM using PEP as substrate measured after 5 mins by LDH-coupled assay relative to control; settings: Staphylococcus aureus subsp. aureus MRSA252
[10] = target: T2, Pyruvate kinase (Staphylococcus aureus (strain MRSA252)); experiment: Inhibition of recombinant N-terminal His-tagged methicillin-resistant Staphylococcus aureus MRSA252 pyruvate kinase expressed in Escherichia coli BL21(DE3) at 10 uM using PEP as substrate measured after 5 mins by LDH-coupled assay relative to control; settings: Staphylococcus aureus subsp. aureus MRSA252

## O=C(/C=C/c1cc2ccc(Br)cc2[nH]1)c1ccccc1O
[1]
  MIC>98: >64 µg/mL
[2]
  IC50: 0.343 µM

## O=C(Nc1nc2ccc(Br)cc2s1)c1cccc(Br)c1O
[1]
  MIC>98: 4 µg/mL (≈ 9.34 µM)

## O=C(c1ncc(-c2c[nH]c3cc(Br)ccc23)[nH]1)c1c[nH]c2ccccc12 [BROMODEOXYTOPSENTIN]
[2]
  IC50: 0.06 µM

## O=C(/C=C/c1cc(Br)ccc1O)c1cc2ccccc2[nH]1
[1]
  MIC>98: 2 µg/mL (≈ 5.84 µM)
[2]
  IC50: 0.355 µM

## COc1c(Br)cccc1C(=O)Nc1nc2ccc(Br)cc2s1
[1]
  MIC>98: >64 µg/mL
[3]
  inhibition: 22%

## Brc1ccc(-c2cc3cc(Br)ccc3[nH]2)cc1
[3]
  inhibition: 21%

## Oc1ccc(Br)cc1-c1nnc(-c2cc3ccccc3[nH]2)o1
[1]
  MIC>98: >64 µg/mL
[3]
  inhibition: 8%

## O=C(/C=C/c1c[nH]c2cc(Br)ccc12)c1c[nH]c2ccccc12
[3]
  inhibition: 28%

## Brc1ccc(-c2c[nH]c3cc(Br)ccc23)cc1
[1]
  MIC>98: 2 µg/mL (≈ 5.7 µM)

## O=C(Nc1nc2ccc(Br)cc2s1)c1ccc(Br)cc1O
[1]
  MIC>98: >64 µg/mL

## O=C(Nc1cccc(Br)c1O)c1cc2ccc(Br)cc2[nH]1
[1]
  MIC>98: >64 µg/mL

## O=C1NC[C@@H](c2c[nH]c3cc(Br)ccc23)N[C@H]1c1c[nH]c2cc(Br)ccc12 [CIS-3,4-DIHYDROHAMACANTHIN B]
[4]
  Selectivity ratio: 166 to 600
[5]
  MIC: 12.5 µg/mL (≈ 25.6 µM)
[6]
  Selectivity ratio: 166 to 600
[7]
  Selectivity ratio: 166 to 600
[8]
  Selectivity ratio: 166 to 600

## Brc1ccc(-c2c[nH]c3ccc(Br)cc23)cc1
[1]
  MIC>98: 1 µg/mL (≈ 2.85 µM)
[9]
  inhibition: 20%

## O=C(Nc1cc(Br)ccc1O)c1cc2ccc(Br)cc2[nH]1
[1]
  MIC>98: >64 µg/mL
[2]
  IC50: 0.012 µM

## O=C(/C=C/c1c[nH]c2ccc(Br)cc12)c1c[nH]c2ccccc12
[3]
  inhibition: 1%

## O=C1c2ccc(Br)cc2C(=O)N1c1nc2ccc(Br)cc2s1
[1]
  MIC>98: >64 µg/mL
[3]
  inhibition: 34%

## O=C(/C=C/c1cc2ccc(Br)cc2[nH]1)c1cc2cc(Br)ccc2[nH]1
[1]
  MIC>98: >64 µg/mL
[3]
  inhibition: 21%

## O=C(Nc1nc2cc(Br)ccc2[nH]1)c1cc2ccc(Br)cc2[nH]1
[1]
  MIC>98: >64 µg/mL
[2]
  IC50: 0.002 µM

## Cn1c(C(=O)Nc2nc3ccc(Br)cc3s2)cc2ccccc21
[1]
  MIC>98: >64 µg/mL
[3]
  inhibition: 41%

## COc1ccc(Br)cc1/C=C1\CCc2c([nH]c3ccccc23)C1=O
[3]
  inhibition: 22%

## O=C(Nc1nc2cc(Br)ccc2[nH]1)c1cc2cc(Br)ccc2[nH]1
[1]
  MIC>98: >64 µg/mL
[2]
  IC50: 0.003 µM

## O=C(Nc1nc2ccc(Br)cc2s1)c1ccccc1O
[1]
  MIC>98: >64 µg/mL
[3]
  inhibition: 65%

## O=C(Nc1nc2cc(Br)ccc2s1)c1cc(Br)ccc1O
[1]
  MIC>98: >64 µg/mL
[3]
  inhibition: 48%

## O=C(Nc1nc2ccc(Br)cc2s1)c1cc2ccccc2[nH]1
[1]
  MIC>98: >64 µg/mL

## O=C(Nc1nc2ccccc2s1)c1cc(Br)ccc1O
[1]
  MIC>98: >64 µg/mL
[3]
  inhibition: 13%

## CN(C(=O)c1cc(Br)ccc1O)c1nc2ccc(Br)cc2s1
[3]
  inhibition: 5%

## O=C(/C=C/c1cc2ccc(Br)cc2[nH]1)c1cc2ccccc2[nH]1
[1]
  MIC>98: >64 µg/mL
[3]
  inhibition: 38%

## O=C(Nc1nc2ccc(Br)cc2s1)c1cc(Br)cc(Br)c1O
[1]
  MIC>98: 1 µg/mL (≈ 1.97 µM)
[2]
  IC50: 0.004 µM

## O=C(/C=C/c1cc(Br)ccc1O)c1cc2ccc(Br)cc2[nH]1
[1]
  MIC>98: 1 µg/mL (≈ 2.37 µM)
[2]
  IC50: 0.024 µM

## Oc1ccc(Br)cc1/C=N/c1nc2ccc(Br)cc2s1
[1]
  MIC>98: 64 µg/mL (≈ 155 µM)
[3]
  inhibition: 41%

## O=C(Nc1ccc(Br)cc1)c1cc2ccc(Br)cc2[nH]1
[1]
  MIC>98: >64 µg/mL
[2]
  IC50: 0.01 µM

## O=C(/C=C/c1cc2ccc(Br)cc2[nH]1)c1cccc(Br)c1O
[1]
  MIC>98: >64 µg/mL
[3]
  inhibition: 41%

## O=C(Nc1ccc(Br)cc1)c1cc2ccc(Br)cc2s1
[1]
  MIC>98: >64 µg/mL
[9]
  inhibition: 43%

## O=C(/C=C/c1cc2ccc(Br)cc2[nH]1)c1ccc(Br)cc1O
[1]
  MIC>98: >64 µg/mL
[2]
  IC50: 0.132 µM

## O=C(/C=C/c1cc2ccc(Br)cc2[nH]1)c1cc(Br)ccc1O
[1]
  MIC>98: >64 µg/mL
[3]
  inhibition: 15%

## O=C(Nc1nc2ccc(Br)cc2s1)c1cc(Br)ccc1O
[1]
  MIC>98: >64 µg/mL

## O=C(Nc1nc2ccc(Br)cc2s1)c1cc2cc(Br)ccc2[nH]1
[1]
  MIC>98: >64 µg/mL
[2]
  IC50: 0.023 µM

## O=C(Nc1nc2cc(Br)ccc2s1)c1cc2cc(Br)ccc2[nH]1
[1]
  MIC>98: >64 µg/mL
[2]
  IC50: 0.008 µM

## O=C(/C=C/c1c[nH]c2ccc(Br)cc12)c1cc2ccccc2[nH]1
[1]
  MIC>98: >64 µg/mL
[2]
  IC50: 1.78 µM

## O=C(/C=C/c1cc2ccccc2[nH]1)c1cccc(Br)c1O
[10]
  inhibition: 2%

## O=C(/C=C/c1cc2ccccc2[nH]1)c1ccc(Br)cc1O
[1]
  MIC>98: >64 µg/mL
[2]
  IC50: 0.553 µM

## O=C(/C=C/c1cc2ccccc2[nH]1)c1cc(Br)ccc1O
[3]
  inhibition: 10%

## O=C(Nc1ccc(Br)cc1)c1cc2ccccc2[nH]1
[1]
  MIC>98: >64 µg/mL
[3]
  inhibition: 41%

## O=C(Nc1nc2cc(Br)ccc2[nH]1)c1cc(Br)ccc1O
[1]
  MIC>98: 4 µg/mL (≈ 9.73 µM)
[2]
  IC50: 0.011 µM

## COc1ccc(Br)cc1/C=C/C(=O)c1cc2ccc(Br)cc2[nH]1
[1]
  MIC>98: >64 µg/mL
[2]
  IC50: 0.008 µM

## O=C(Nc1nc2cc(Br)ccc2s1)c1cc2ccccc2[nH]1
[1]
  MIC>98: >64 µg/mL

## COc1ccc(Br)cc1C(=O)Nc1nc2ccc(Br)cc2s1
[1]
  MIC>98: >64 µg/mL
[2]
  IC50: 0.008 µM

## O=C(/C=C/c1c[nH]c2cc(Br)ccc12)c1cc2ccccc2[nH]1
[3]
  inhibition: 45%

## O=C(Nc1nc2ccc(Br)cc2s1)c1cccc(Cl)c1O
[1]
  MIC>98: 4 µg/mL (≈ 10.4 µM)
[9]
  inhibition: 43%

## O=C(/C=C/c1cc2ccc(Br)cc2[nH]1)c1cc2ccc(Br)cc2[nH]1
[3]
  inhibition: 6%

## O=C(/C=C/c1cccc(Br)c1O)c1cc2ccc(Br)cc2[nH]1
[1]
  MIC>98: >64 µg/mL
[2]
  IC50: 0.403 µM

## Oc1ccc(Br)cc1-c1ccnc(-c2cc3ccc(Br)cc3[nH]2)c1
[1]
  MIC>98: >64 µg/mL
[9]
  inhibition: 41%

## COc1ccc(Br)cc1-c1cccc(-c2cc3ccccc3[nH]2)n1
[1]
  MIC>98: >64 µg/mL
[3]
  inhibition: 6%

## O=C(/C=C/c1cc2ccccc2[nH]1)c1cc2ccc(Br)cc2[nH]1
[1]
  MIC>98: >64 µg/mL
[2]
  IC50: 0.005 µM

## O=C(/C=C/c1ccc(Br)cc1O)c1cc2ccc(Br)cc2[nH]1
[1]
  MIC>98: >64 µg/mL
[2]
  IC50: 0.014 µM

## Oc1c(Br)cccc1CNc1nc2ccc(Br)cc2s1
[3]
  inhibition: 17%

## COc1ccc(Br)cc1-c1nnc(-c2cc3ccccc3[nH]2)o1
[1]
  MIC>98: >64 µg/mL
[3]
  inhibition: 19%

## O=C(Nc1cc(Br)ccc1O)c1cc2ccccc2[nH]1
[3]
  inhibition: 28%
